Measured values published in the supplement of paper PMC10307832.

Key:
Test in all cases: relative viability (nuclei count vs DMSO), 5 days (fraction); higher = more cells survive
Carboplatin + Tozasertib = compound: C1CC(C1)(C(=O)O)C(=O)O.[NH2-].[NH2-].[Pt+2] [Carboplatin] + Cc1cc(Nc2cc(N3CCN(C)CC3)nc(Sc3ccc(NC(=O)C4CC4)cc3)n2)n[nH]1 [Tozasertib] (partner 0.1 µM)
In short: (§1)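 Five library-drug doses in √10 steps were combined with a fixed anchor-drug dose, or a single drug was given alone, by pin tool to lung cancer cell lines in 1536-well plates the day after seeding. Nuclei were stained and counted after 5 days. Relative viability is the nuclei count in treated wells over that in vehicle wells, taken as the median of duplicate plates.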

MLN4924 + Navitoclax = compound: NS(=O)(=O)OC[C@@H]1C[C@@H](n2ccc3c(N[C@H]4CCc5ccccc54)ncnc32)C[C@@H]1O [MLN4924] + CC1(C)CCC(c2ccc(Cl)cc2)=C(CN2CCN(c3ccc(C(=O)NS(=O)(=O)c4ccc(N[C@H](CCN5CCOCC5)CSc5ccccc5)c(S(=O)(=O)C(F)(F)F)c4)cc3)CC2)C1 [Navitoclax] (partner 0.5 µM)
In short: as §1

GSK126 + Palbociclib = compound: CC[C@H](C)N1C=C(C2=C(C=C(C=C21)C3=CN=C(C=C3)N4CCNCC4)C(=O)NCC5=C(C=C(NC5=O)C)C)C [GSK126] + CC(=O)c1c(C)c2cnc(Nc3ccc(N4CCNCC4)cn3)nc2n(C2CCCC2)c1=O [Palbociclib] (partner 0.5 µM)
In short: as §1

Carboplatin + Olaparib = compound: C1CC(C1)(C(=O)O)C(=O)O.[NH2-].[NH2-].[Pt+2] [Carboplatin] + O=C(c1cc(Cc2n[nH]c(=O)c3ccccc23)ccc1F)N1CCN(C(=O)C2CC2)CC1 [Olaparib] (partner 8 µM)
In short: as §1

UMC-11
relative viability (Carboplatin + Tozasertib; first compound 0.08 µM): 0.22
relative viability (Carboplatin + Tozasertib; first compound 0.253 µM): 0.208
relative viability (Carboplatin + Tozasertib; first compound 0.8 µM): 0.207
relative viability (Carboplatin + Tozasertib; first compound 2.53 µM): 0.193
relative viability (Carboplatin + Tozasertib; first compound 8 µM): 0.212
relative viability (MLN4924 + Navitoclax; first compound 0.04 µM): 0.198
relative viability (MLN4924 + Navitoclax; first compound 0.1265 µM): 0.142
relative viability (MLN4924 + Navitoclax; first compound 0.4 µM): 0.167
relative viability (MLN4924 + Navitoclax; first compound 1.265 µM): 0.1
relative viability (MLN4924 + Navitoclax; first compound 4 µM): 0.112
relative viability (GSK126 + Palbociclib; first compound 0.08 µM): 0.353
relative viability (GSK126 + Palbociclib; first compound 0.253 µM): 0.32
relative viability (GSK126 + Palbociclib; first compound 0.8 µM): 0.328
relative viability (GSK126 + Palbociclib; first compound 2.53 µM): 0.405
relative viability (GSK126 + Palbociclib; first compound 8 µM): 0.344
relative viability (Carboplatin + Olaparib; first compound 0.08 µM): 0.72
relative viability (Carboplatin + Olaparib; first compound 0.253 µM): 0.573
relative viability (Carboplatin + Olaparib; first compound 0.8 µM): 0.433
relative viability (Carboplatin + Olaparib; first compound 2.53 µM): 0.381
relative viability (Carboplatin + Olaparib; first compound 8 µM): 0.345
